Measured values from ChEMBL document CHEMBL3045426, “Synthesis, Antiviral and Antibacterial Activities of Isatin Mannich Bases” (Med Chem Res, 2005).
Converted amounts (≈) assume the structure as drawn.

Columns and labels:
Hepatitis C virus = experiment: Antiviral activity against Hepatitis C virus BM4-5 infected in Huh7 cells assessed as inhibition of viral RNA replication by phosphor screening method; format: functional, Hepacivirus hominis, Huh-7
Klebsiella pneumoniae [1] = experiment: Antimicrobial activity against Klebsiella pneumoniae after 18 to 20 hr by agar dilution method; format: functional
Morganella morganii = experiment: Antimicrobial activity against Morganella morganii after 18 to 20 hr by agar dilution method; format: functional
Klebsiella pneumoniae [2] = experiment: Antimicrobial activity against Klebsiella pneumoniae subsp. ozaenae after 18 to 20 hr by agar dilution method; format: functional
[3] = tested on: Mycobacterium tuberculosis; experiment: Antimycobacterial activity against Mycobacterium tuberculosis H37Rv ATCC 27294 at 6.25 ug/ml by MABA; format: functional
[4] = Cytotoxicity against Homo sapiens (human) MT4 cells after 5 days by MTT assay; format: cell-based
Vibrio parahaemolyticus = experiment: Antimicrobial activity against Vibrio parahaemolyticus after 18 to 20 hr by agar dilution method; format: functional
Proteus vulgaris = experiment: Antimicrobial activity against Proteus vulgaris after 18 to 20 hr by agar dilution method; format: functional
Proteus mirabilis = experiment: Antimicrobial activity against Proteus mirabilis after 18 to 20 hr by agar dilution method; format: functional
Plesiomonas = experiment: Antimicrobial activity against Plesiomonas after 18 to 20 hr by agar dilution method; format: functional
Shigella boydii = experiment: Antimicrobial activity against Shigella boydii after 18 to 20 hr by agar dilution method; format: functional
Pseudomonas aeruginosa = experiment: Antimicrobial activity against Pseudomonas aeruginosa after 18 to 20 hr by agar dilution method; format: functional
Vibrio mimicus = experiment: Antimicrobial activity against Vibrio mimicus after 18 to 20 hr by agar dilution method; format: functional
[5] = tested on: Human immunodeficiency virus 1; experiment: Antiviral activity against Human immunodeficiency virus 1 IIIB infected CEM cells assessed as inhibition of virus-induced cytopathicity after 6 days by XTT assay; format: functional, organism-based; settings: CCRF-CEM, 144 h
Enterobacter = experiment: Antimicrobial activity against Enterobacter after 18 to 20 hr by agar dilution method; format: functional
Salmonella typhi = experiment: Antimicrobial activity against Salmonella enterica subsp. enterica serovar Typhi after 18 to 20 hr by agar dilution method; format: functional
[6] = Cytotoxicity against Homo sapiens (human) HuH7 cells assessed as cell growth at 50 ug/ml after 3 days by Neutral red assay; format: cell-based, Huh-7; settings: read-out: Activity
Vibrio fluvialis = experiment: Antimicrobial activity against Vibrio fluvialis after 18 to 20 hr by agar dilution method; format: functional
Vibrio cholerae [7] = experiment: Antimicrobial activity against Vibrio cholerae 0139 after 18 to 20 hr by agar dilution method; format: functional; settings: 139
Edwardsiella tarda = experiment: Antimicrobial activity against Edwardsiella tarda after 18 to 20 hr by agar dilution method; format: functional
Salmonella enteritidis = experiment: Antimicrobial activity against Salmonella enterica subsp. enterica serovar Enteritidis after 18 to 20 hr by agar dilution method; format: functional
[8] = Cytotoxicity against Homo sapiens (human) CEM cells after 5 days by MTT assay; format: cell-based; settings: CEM cells (CCRF-CEM)
Priestia megaterium = experiment: Antimicrobial activity against Bacillus megaterium after 18 to 20 hr by agar dilution method; format: functional
Citrobacter freundii = experiment: Antimicrobial activity against Citrobacter freundii after 18 to 20 hr by agar dilution method; format: functional
Salmonella paratyphi = experiment: Antimicrobial activity against Salmonella enterica subsp. enterica serovar Paratyphi A after 18 to 20 hr by agar dilution method; format: functional
[9] = tested on: Human immunodeficiency virus 1; experiment: Antiviral activity against Human immunodeficiency virus 1 IIIB infected CEM cells assessed as protection against viral infection after 6 days by XTT assay; format: functional, CCRF-CEM; parameters: concentration or dose not given beside the values
Shigella sonnei = experiment: Antimicrobial activity against Shigella sonnei after 18 to 20 hr by agar dilution method; format: functional
[10] = tested on: Human immunodeficiency virus 1; experiment: Antiviral activity against Human immunodeficiency virus 1 IIIB infected MT4 cells assessed as protection against viral infection after 5 days by MTT assay; format: functional; parameters: concentration or dose not given beside the values
Staphylococcus aureus = experiment: Antimicrobial activity against Staphylococcus aureus after 18 to 20 hr by agar dilution method; format: functional
[11] = tested on: Human immunodeficiency virus 1; experiment: Antiviral activity against Human immunodeficiency virus 1 IIIB infected MT4 cells assessed as inhibition of virus-induced cytopathicity after 5 days by MTT assay; format: functional, organism-based; settings: MT4, 120 h
Salmonella typhimurium = experiment: Antimicrobial activity against Salmonella enterica subsp. enterica serovar Typhimurium after 18 to 20 hr by agar dilution method; format: functional
Vibrio cholerae [12] = experiment: Antimicrobial activity against Vibrio cholerae 01 after 18 to 20 hr by agar dilution method; format: functional; settings: 1
Escherichia coli = experiment: Antimicrobial activity against Escherichia coli NCTC 10418 after 18 to 20 hr by agar dilution method; format: functional

| Compound | MIC (Klebsiella pneumoniae [1]) [µg/mL] | MIC (Morganella morganii) [µg/mL] | MIC (Klebsiella pneumoniae [2]) [µg/mL] | MIC (Vibrio parahaemolyticus) [µg/mL] | MIC (Proteus vulgaris) [µg/mL] | MIC (Proteus mirabilis) [µg/mL] | MIC (Plesiomonas) [µg/mL] | MIC (Shigella boydii) [µg/mL] | MIC (Pseudomonas aeruginosa) [µg/mL] | MIC (Vibrio mimicus) [µg/mL] | MIC (Enterobacter) [µg/mL] | MIC (Salmonella typhi) [µg/mL] | MIC (Vibrio fluvialis) [µg/mL] | MIC (Vibrio cholerae [7]) [µg/mL] | MIC (Edwardsiella tarda) [µg/mL] | MIC (Salmonella enteritidis) [µg/mL] | MIC (Priestia megaterium) [µg/mL] | MIC (Citrobacter freundii) [µg/mL] | MIC (Salmonella paratyphi) [µg/mL] | MIC (Shigella sonnei) [µg/mL] | also measured |
| --- | --- | --- | --- | --- | --- | --- | --- | --- | --- | --- | --- | --- | --- | --- | --- | --- | --- | --- | --- | --- | --- |
| COc1cc(Cc2cnc(/N=C3\C(=O)N(CN4CCN(c5ccc(Cl)cc5)CC4)c4ccc(Cl)cc43)nc2N)cc(OC)c1OC | 1250 (≈ 1890 µM) | 1250 (≈ 1890 µM) | 1250 (≈ 1890 µM) | 2.44 (≈ 3.68 µM) | 1250 (≈ 1890 µM) | 1250 (≈ 1890 µM) | 19.5 (≈ 29.5 µM) | 39.1 (≈ 59 µM) | 2500 (≈ 3770 µM) | 9.76 (≈ 14.7 µM) | 1250 (≈ 1890 µM) | 1250 (≈ 1890 µM) | 1250 (≈ 1890 µM) | 1250 (≈ 1890 µM) | 625 (≈ 943 µM) | 1250 (≈ 1890 µM) | 1250 (≈ 1890 µM) | 1250 (≈ 1890 µM) | 625 (≈ 943 µM) | 1250 (≈ 1890 µM) | inhibition (INH) (Hepatitis C virus): 99%; inhibition at 6.25 µg/mL [3]: 40%; CC50 at 120 h [4]: 38.6 µg/mL (≈ 58.3 µM); EC50 [5]: > 40.1 µg/mL; viability at 72 h, 50 ug/ml [6]: 56%; CC50 at 120 h [8]: 40.1 µg/mL (≈ 60.5 µM); Activity [9]: 22.64%; Activity [10]: 32.6%; MIC (Staphylococcus aureus): 1250 µg/mL (≈ 1890 µM); EC50 [11]: > 38.6 µg/mL; MIC (Salmonella typhimurium): 1250 µg/mL (≈ 1890 µM); MIC (Vibrio cholerae [12]): 4.88 µg/mL (≈ 7.37 µM); MIC (Escherichia coli): 1250 µg/mL (≈ 1890 µM) |
| COc1cc(Cc2cnc(/N=C3\C(=O)N(CN4CCN(C(=O)c5ccc(F)cc5)CC4)c4ccc(Cl)cc43)nc2N)cc(OC)c1OC | 2500 (≈ 3710 µM) | 2500 (≈ 3710 µM) | 2500 (≈ 3710 µM) | 4.88 (≈ 7.24 µM) | 2500 (≈ 3710 µM) | 2500 (≈ 3710 µM) | 9.76 (≈ 14.5 µM) | 39.1 (≈ 57.9 µM) | 2500 (≈ 3710 µM) | 2.44 (≈ 3.62 µM) | 625 (≈ 927 µM) | 2500 (≈ 3710 µM) | 2500 (≈ 3710 µM) | 1250 (≈ 1850 µM) | 2500 (≈ 3710 µM) | 2500 (≈ 3710 µM) | 2500 (≈ 3710 µM) | 2500 (≈ 3710 µM) | 625 (≈ 927 µM) | 2500 (≈ 3710 µM) | inhibition (INH) (Hepatitis C virus): 91%; inhibition at 6.25 µg/mL [3]: 38%; CC50 at 120 h [4]: 60.6 µg/mL (≈ 89.9 µM); EC50 [5]: > 51 µg/mL; viability at 72 h, 50 ug/ml [6]: 71%; CC50 at 120 h [8]: 51 µg/mL (≈ 75.7 µM); Activity [9]: 23.38%; Activity [10]: 30.2%; MIC (Staphylococcus aureus): 2500 µg/mL (≈ 3710 µM); EC50 [11]: > 60.6 µg/mL; MIC (Salmonella typhimurium): 2500 µg/mL (≈ 3710 µM); MIC (Vibrio cholerae [12]): 39.1 µg/mL (≈ 57.9 µM); MIC (Escherichia coli): 2500 µg/mL (≈ 3710 µM) |
| COc1cc(Cc2cnc(/N=C3\C(=O)N(CN4CCN(c5ccccn5)CC4)c4ccc(Cl)cc43)nc2N)cc(OC)c1OC | 1250 (≈ 1990 µM) | 312 (≈ 497 µM) | 625 (≈ 993 µM) | 1.22 (≈ 1.94 µM) | 625 (≈ 993 µM) | 1250 (≈ 1990 µM) | 9.76 (≈ 15.5 µM) | 2.44 (≈ 3.88 µM) | 1250 (≈ 1990 µM) | 1.22 (≈ 1.94 µM) | 1250 (≈ 1990 µM) | 1250 (≈ 1990 µM) | 1250 (≈ 1990 µM) | 312 (≈ 497 µM) | 1250 (≈ 1990 µM) | 1250 (≈ 1990 µM) | 1250 (≈ 1990 µM) | 625 (≈ 993 µM) | 312 (≈ 497 µM) | 1250 (≈ 1990 µM) | inhibition (INH) (Hepatitis C virus): 89%; inhibition at 6.25 µg/mL [3]: 23%; CC50 at 120 h [4]: 39.2 µg/mL (≈ 62.3 µM); EC50 [5]: > 29.4 µg/mL; viability at 72 h, 50 ug/ml [6]: 101%; CC50 at 120 h [8]: 29.4 µg/mL (≈ 46.7 µM); Activity [9]: 23.55%; Activity [10]: 16.6%; MIC (Staphylococcus aureus): 1250 µg/mL (≈ 1990 µM); EC50 [11]: > 39.2 µg/mL; MIC (Salmonella typhimurium): 1250 µg/mL (≈ 1990 µM); MIC (Vibrio cholerae [12]): 9.76 µg/mL (≈ 15.5 µM); MIC (Escherichia coli): 1250 µg/mL (≈ 1990 µM) |
| COc1cc(Cc2cnc(/N=C3\C(=O)N(CN4CCC(C)CC4)c4ccc(Cl)cc43)nc2N)cc(OC)c1OC | 1250 (≈ 2210 µM) | 1250 (≈ 2210 µM) | 625 (≈ 1110 µM) | 2.44 (≈ 4.32 µM) | 1250 (≈ 2210 µM) | 1250 (≈ 2210 µM) | 39.1 (≈ 69.1 µM) | 4.88 (≈ 8.64 µM) | 1250 (≈ 2210 µM) | 1.22 (≈ 2.16 µM) | 1250 (≈ 2210 µM) | 1250 (≈ 2210 µM) | 1250 (≈ 2210 µM) | 1250 (≈ 2210 µM) | 1250 (≈ 2210 µM) | 1250 (≈ 2210 µM) | 625 (≈ 1110 µM) | 312 (≈ 553 µM) | 312 (≈ 553 µM) | 1250 (≈ 2210 µM) | inhibition (INH) (Hepatitis C virus): 81%; inhibition at 6.25 µg/mL [3]: 15%; CC50 at 120 h [4]: 67.4 µg/mL (≈ 119 µM); EC50 [5]: > 46.3 µg/mL; viability at 72 h, 50 ug/ml [6]: 108%; CC50 at 120 h [8]: 46.3 µg/mL (≈ 81.9 µM); Activity [9]: 22.07%; Activity [10]: 41.7%; MIC (Staphylococcus aureus): 1250 µg/mL (≈ 2210 µM); EC50 [11]: > 67.4 µg/mL; MIC (Salmonella typhimurium): 1250 µg/mL (≈ 2210 µM); MIC (Vibrio cholerae [12]): 4.88 µg/mL (≈ 8.64 µM); MIC (Escherichia coli): 1250 µg/mL (≈ 2210 µM) |
| COc1c(N2CCNC(C)C2)c(F)cc2c(=O)c(C(=O)O)cn(C3CC3)c12 (stereo unspecified) [GATIFLOXACIN] | 0.08 (≈ 0.213 µM) | 0.02 (≈ 0.0533 µM) | 0.08 (≈ 0.213 µM) | 9.77 (≈ 26 µM) | 0.02 (≈ 0.0533 µM) | 0.02 (≈ 0.0533 µM) | 2.44 (≈ 6.5 µM) | 1.22 (≈ 3.25 µM) | 0.15 (≈ 0.4 µM) | 0.15 (≈ 0.4 µM) | 0.02 (≈ 0.0533 µM) | 0.02 (≈ 0.0533 µM) | 0.02 (≈ 0.0533 µM) | 0.02 (≈ 0.0533 µM) | 0.02 (≈ 0.0533 µM) | 0.02 (≈ 0.0533 µM) | 0.08 (≈ 0.213 µM) | 0.08 (≈ 0.213 µM) | 0.02 (≈ 0.0533 µM) | 0.08 (≈ 0.213 µM) | MIC (Staphylococcus aureus): 0.02 µg/mL (≈ 0.0533 µM); MIC (Salmonella typhimurium): 0.02 µg/mL (≈ 0.0533 µM); MIC (Vibrio cholerae [12]): 0.02 µg/mL (≈ 0.0533 µM); MIC (Escherichia coli): 0.02 µg/mL (≈ 0.0533 µM) |
